# Where “and” joins values, the source holds several entries; their conditions need not be identical. Equal values may be shown once. Read-outs that look alike come from different tables or passages of the source.
# Experiments:
# Keratinocytes = test: Keratinocyte proliferation, BrdU uptake; assay type: cell-based; details: Homo sapiens, serum activated, read-out: IC50 of stimulated cells
# Description: Primary human keratinocytes were maintained in keratinocyte growth medium (KGM): DMEM, 25% Nutrient mixture F-12 (HAM), 10% fetal bovine serum, 5 μg/ml insulin, 0.4 μg/ml hydrocortisone, 0.1 nM cholera toxin, 10 ng/ml epidermal growth factor, 1.8×10^−4 M adenine, 5 μg/ml transferrin, 2 nM T3, 100,000 U/l penicillin, […] streptomycin, 0.1 mg/ml amphotericin. The primary keratinocytes were cultured from small biopsy specimens.
# (§1) Cells were depleted of fetal calf serum (FCS) for 12 hours. They were then stimulated to proliferate by addition of ConA (10 μg/ml) for PBMC from healthy individuals and for Jurkat cells, FCS (10%) for HEK293 and A375 cells, PDGF (30 ng/ml) for NIH 3T3 cells, and EGF (30 ng/ml) for MDA-MB-231, Cells (1×10^5) were cultured in 96-well plates for 3 days in the presence or absence of inhibitors at the concentrations specified in the text. Each condition was tested in duplicate wells.
# Proliferation was assessed by BrdU incorporation using a colorimetric ELISA kit (Roche, Germany). Subsequent to labeling with 10 μM BrdU, DNA was denatured and the cells were incubated with anti-BrdU-POD, prior to the addition of colorimetric substrate (TMB). The reaction product was quantified by measuring absorbance at 450 nm in an ELISA plate reader (ELx800 BIO-TEK Instruments Inc.). […]
# MDA-MB-231 = MDA-MB-231 proliferation, BrdU uptake; assay type: cell-based; details: Homo sapiens
# Description: as §1
# Proliferation was assessed by BrdU incorporation using a colorimetric ELISA kit (Roche, Germany). Subsequent to labeling with 10 μM BrdU, DNA was denatured and the cells were incubated with anti-BrdU-POD, prior to the addition of colorimetric substrate (TMB). The reaction product was quantified by measuring absorbance at 450 nm in an ELISA plate reader (ELx800 BIO-TEK Instruments Inc.).
# To characterize the mode of action of 2 (S101) in more detail, we first examined whether 2 inhibits non-hematopoietic cell lines. We studied the effect of 2 on the growth of four cell lines: NIH 3T3 (mouse embryonic fibroblasts), A-431 (human vulval carcinoma cells), MDA-MB-468 (human breast carcinoma cells), and PANC-1 (human pancreatic carcinoma cells) (FIGS. 1A-B). We also tested the inhibitors on human keratinocytes. […]
# [1] = In vitro percutaneous absorption and penetration, porcine ear skin; assay type: in vitro ADME
# Description: Fresh porcine ears were obtained from local slaughterhouse. Dorsal side skin was surgically removed from the ears. Hairs were trimmed off with an electric trimmer. Subcutaneous fat was carefully cleaned. […] They were stored at −20° C. until use.
# Compound 2 was dispersed into Labrasol® (Gattefosse, France) The mixture was heated to 35° C. and stirred until solubilized. Final concentrations: 0.108% and 0.316%. The final products are clear and somewhat viscous solutions.
# The skin samples were mounted on Zyleris' High-Throughput Screening (HTS) station. Each individual cell has a diffusion area of 0.503 cm^2 (8 mm in diameter). The receptor chamber was filled with 2.0 ml of 5% Oleth-20 in 1×PBS buffer, pH 7.4 (10 mM Phosphate, 138 mM NaCl and 2 mM KCl), which was continuously mixed at 200 r.p.m. The screening experiments were carried out at 32±0.1° C. Oleth-20 is a polyethylene glycol ether of Oleyl Alcohol [Poly(oxy-1,2-ethanediyl) 20 mol Ethylene Oxide average molar ratio] (Spectrum Chemical, California).
# The samples were dosed at 5 mg for both formulations. Each formulation was run in three replicates. At the end of each time interval (2, 12, and 24 h), the skin surface was wiped with cotton ball. The standard tape-stripping method was used to remove the stratum corneum (SC) layer. Repeated tape-stripping was continued until SC layer was disappeared (15 strips). Compound 2 absorbed in epidermis/dermis layer was collected by solvent extraction with DMSO. After tape-stripping, the remaining skin samples were minced and vortexed with 1.5 ml DMSO. The supernatant was separated. The extraction step was repeated three times. The supernatants were combined and ready for analysis.
# The analysis was carried out with a Shimadzu LC-10ADVP instrument with Varian Polaris 3 C18-A, 50×3.0 mm, column. Mobile Phase A: 0.1% formic acid in water. Mobile Phase B: 0.1% formic acid in methanol. Flow rate: 0.4 ml/min.
# MS system is an AB Scienx API4000 operated at positive ionization mode. The calibration range is 2.50-25,000 ng/ml.
# Quality control of the screening experiments was established by measuring mass balances of a couple of selected runs (spot-check). Measurement of mass balance is to determine total amount of 2 recovered after each experiment. After the selected experiments, total amount of 2 left on the skin surface, absorbed in stratum corneum, in epidermis/dermis layer, and collected in the receptor medium was extracted and determined by LC-MS/MS analysis. The total amount was then compared to the initial dosing amount to determine recovery percentage. Two of the 12 hr runs for the 0.316% formulation was selected for the spot-check. […] They are within acceptable range of 80-120%.
# [2] = system: IL-2 secretion by 2C splenocytes stimulated by irradiated BALB/c splenocytes; test: IL-2 levels in MLR supernatants; assay type: cell-based, mouse; details: 24, 48 and 72 h MLR; compound 2 up to 1 μM
# Description: In the mixed lymphocyte reaction, stimulator cells cause responder cells to proliferate, owing to alloreactivity [Reich-Zeliger et al., 2004]. Splenocytes from 2c mice were stimulated by irradiated splenocytes from BALB/c mice in the presence of the evaluated compound at the concentrations specified. Cultures were incubated for 72 hours in 96-well plates.
# Jurkat or PBMC cells were treated for 12 h with 1 μM, 0.5 μM or no inhibitor. Cells (1×10^6) were plated in 24-well plates (Nunc) and stimulated by C305 (dilution 1:500), anti-CD28 (1:100), PMA (50 ng/ml) or ionomycin (1 μM) for 12 h. Alternately, cells were stimulated for 24, 48 and 72 h in MLR. After stimulation cells were centrifuged at 130×g for 5 minutes at room temperature.
# Supernatants were collected and IL-2 was assayed using the IL-2 ELISA kit (BioSource International USA, KH0022) according to the manufacturer's instructions. Absorbance was read at 450 nm in an ELISA plate reader (ELx800 BIO-TEK Instruments Inc.).
# In vivo, T cells are stimulated by neighboring cells. In order to test the effect of 2 on cell-stimulated IL-2 secretion, the supernatants of splenocytes after 24, 48 and 72 h MLR were collected and analyzed for their IL-2 levels (FIG. 5C). […] At higher concentrations, no viable cells remained.
structure (smiles),measurement,setting,value
"COc1cc(-c2nc(Nc3ccc(C)cc3)c3ccccc3n2)cc(OC)c1OC [Compound 2, N-p-tolyl-2-(3,4,5-trimethoxyphenyl)quinazolin-4-amine]",IC50,Keratinocytes,> 10 µM
same,IC50,"MDA-MB-231; MDA-MB-231, EGF (30 ng/ml) activated, read-out: IC50 of stimulated cells",> 10 µM
same,IC50,"MDA-MB-231; MDA-MB-231, non-stimulated, read-out: IC50 of non-stimulated cells",> 10 µM
same,skin concentration relative to the IC50,"[1]; after 24 h, 0.3% 2 in Labrasol",1000 folds
same,final concentration in the skin (epidermis/dermis),"[1]; after 24 h, initial concentration 0.3% 2 in Labrasol, estimated",higher than 114 μM
same,penetration of the epidermis/dermis layer,"[1]; porcine ears skin, Labrasol formulation",able to penetrate
same,recovery percentage (mass balance),"[1]; two 12 hr runs, 0.316% formulation",89% and 114%
same,IL-2 levels in MLR supernatants,[2],no visible decrease

# — patent publication US8759363B2, “Quinazoline-based T cell proliferation inhibitors” (Yissum Research Development Company of the Hebrew …, priority 2010, dated 2014)
